Assay: Inhibition of chemotaxis in human MCP1 monocytes

Row | IC50 [nM] | Compound
1 | 0.32 | CC(C)C[C@]1(C(=O)NCc2cc(F)cc(C(F)(F)F)c2)CC[C@@H](N2CC[C@]3(C=Cc4ccccc43)[C@@H](C)C2)C1 [(1R,3R)-N-{[3-fluoro-5-(trifluoromethyl)phenyl]methyl}-1-(2-methylpropyl)-3-[(1S,5'R)-5'-methylspiro[indene-1,4'-piperidine]-1'-yl]cyclopentane-1-carboxamide]
2 | 0.23 | C[C@H]1CN([C@@H]2CC[C@@](C(=O)NCc3cc(F)cc(C(F)(F)F)c3)(C3CC3)C2)CC[C@]12C=Cc1ccccc12 [(1S,3R)-1-cyclopropyl-N-{[3-fluoro-5-(trifluoromethyl)phenyl]methyl}-3-[(1S,5'R)-5'-methylspiro[indene-1,4'-piperidine]-1'-yl]cyclopentane-1-carboxamide]
3 | 0.15 | CC(C)[C@]1(C(=O)NCc2cc(F)cc(C(F)(F)F)c2)CC[C@@H](N2CC[C@]3(C=Cc4ccccc43)[C@@H](C)C2)C1 [(1S,3R)-N-{[3-fluoro-5-(trifluoromethyl)phenyl]methyl}-3-[(1S,5'R)-5'-methylspiro[indene-1,4'-piperidine]-1'-yl]-1-(propan-2-yl)cyclopentane-1-carboxamide]

Reference: BindingDB's records for doi:10.1016/j.bmcl.2007.04.053 (Merck Research Laboratories, 2007)
